One may read the inhibition as the percentage by which the read-out fell short of the control. Low readings indicate a response near the control, high ones a response far below the control. The term IC50 denotes the concentration that inhibits the measured activity by half. A low value points to greater potency in that assay. For orientation: Km means the substrate concentration at which the rate is half of its maximum.

Active and inactive are the calls of the source. The calls are words filed in the database; no cut-off is given here. A value given as a limit tells only on which side of the number the result lay.

The chains are these.
T1: Prostaglandin G/H synthase 2 (Homo sapiens) (UniProt P35354)
T1 sequence (whole entry): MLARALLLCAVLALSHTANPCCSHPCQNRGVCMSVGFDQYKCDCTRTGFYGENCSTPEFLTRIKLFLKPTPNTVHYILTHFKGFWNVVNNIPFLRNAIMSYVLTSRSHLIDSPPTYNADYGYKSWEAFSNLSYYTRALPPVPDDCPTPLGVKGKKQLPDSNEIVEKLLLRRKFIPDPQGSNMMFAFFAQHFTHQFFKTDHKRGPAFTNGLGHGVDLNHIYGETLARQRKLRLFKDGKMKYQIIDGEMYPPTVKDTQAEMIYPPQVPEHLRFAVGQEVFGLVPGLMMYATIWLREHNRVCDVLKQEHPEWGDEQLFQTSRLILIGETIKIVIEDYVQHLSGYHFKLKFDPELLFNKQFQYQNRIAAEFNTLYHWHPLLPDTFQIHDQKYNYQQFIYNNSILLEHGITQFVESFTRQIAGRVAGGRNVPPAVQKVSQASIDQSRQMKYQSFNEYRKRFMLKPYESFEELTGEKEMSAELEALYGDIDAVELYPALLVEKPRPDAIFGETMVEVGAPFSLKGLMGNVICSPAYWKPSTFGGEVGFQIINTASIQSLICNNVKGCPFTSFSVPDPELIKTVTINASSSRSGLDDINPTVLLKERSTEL

T2: Prostaglandin G/H synthase 2 (Homo sapiens, UniProt P35354)
T2 sequence (P35354 whole entry): T1 sequence (whole entry)

B1: Prostaglandin G/H synthase 2 (Homo sapiens), P35354 (protein)
chain: T1 sequence (whole entry)

The first data set has as its target T1, Prostaglandin G/H synthase 2 (Homo sapiens). To be noted: at 100 µM.
Description: Inhibition of COX2 at 100 uM by scintillation proximity assay
As for `O=C(/C=C/c1ccc(O)c(O)c1)O[C@@H]1C[C@](O)(C(=O)O)C[C@@H](O)[C@H]1O`, the inhibition was < 30%. For the molecule `Oc1ccc(O)cc1`, the inhibition was < 30%.

For the molecule `O=c1ccc2ccc(O)cc2o1`, the inhibition is < 30%. With `O=C(O)C1=C[C@@H](O)[C@@H](O)[C@H](O)C1`, the inhibition is < 30%.

`O=C(O)/C=C/c1ccc(O)c(O)c1` came in with an inhibition of 32%.

For the molecule `O=c1cc(-c2ccccc2)oc2cc(O)cc(O)c12`, the inhibition is < 30%.

In turn, `O=c1c(O)c(-c2cc(O)c(O)c(O)c2)oc2cc(O)cc(O)c12` came in with an inhibition of 62%. On the same count and under the same terms, for `COc1cc2ccc(=O)oc2cc1O` the value was < 30%. Same read-out and setting: in the case of `C=C(C)[C@H]1CC=C(C)CC1` it was < 30%; in that of `OC[C@H]1O[C@@H](Oc2ccc(O)cc2)[C@H](O)[C@@H](O)[C@@H]1O`, < 30%; in that of `C[n+]1cccc(C(=O)[O-])c1`, < 30%. Consider `CC12CCC(CC1=O)C2(C)C` (stereo not drawn), for which the inhibition is < 30%. Same read-out and setting: for `O=C(O)c1cc(O)c(O)c(O)c1` the value was < 30%; for `C[C@@H]1O[C@@H](OC[C@H]2O[C@@H](Oc3c(-c4ccc(O)c(O)c4)oc4cc(O)cc(O)c4c3=O)[C@H](O)[C@@H](O)[C@@H]2O)[C@H](O)[C@H](O)[C@H]1O`, < 30%; for `O=C(O)c1cc(O)c2c(c1)[C@@H]([C@H]1c3cc(C(=O)O)cc(O)c3C(=O)c3c(O[C@@H]4O[C@H](CO)[C@@H](O)[C@H](O)[C@H]4O)cccc31)c1cccc(O[C@@H]3O[C@H](CO)[C@@H](O)[C@H](O)[C@H]3O)c1C2=O`, < 30%. In the case of `Oc1cccc(O)c1O`, the inhibition is 57%. On the same count and under the same terms, in the case of `C=C(C)[C@@H]1CC[C@]2(CO)CC[C@]3(C)[C@H](CC[C@@H]4[C@@]5(C)CC[C@H](O)C(C)(C)[C@@H]5CC[C@]43C)[C@@H]12` it was < 30%; in that of `Cc1ccc(C(C)C)c(O)c1`, < 30%. Same read-out and setting: for `CN1[C@@H]2C[C@@H](OC(=O)[C@H](CO)c3ccccc3)C[C@H]1[C@@H]1O[C@H]12` the value was < 30%. The same measure, in the same setting: in the case of `O=C(O)[C@]1(O)C[C@H](O)[C@@H](O)[C@@H](O)C1` it was < 30%; in that of `CC(C)[C@@H]1CC[C@@H](C)C[C@H]1O`, < 30%. For the molecule `CN1[C@@H]2CC[C@H]1C[C@@H](OC(=O)C(CO)c1ccccc1)C2` (mixture of isomers), the inhibition was < 30%. Consider `COc1ccc(C(=O)O)cc1O`, for which the inhibition was < 30%. On the same count and under the same terms, in the case of `O=C(O)C1CCCCN1` (stereo not drawn) it was < 30%; in that of `O=C(O)c1cccnc1`, < 30%; in that of `Cn1c(=O)c2c(ncn2C)n(C)c1=O`, < 30%. Turning to `O=C(O)CCCCC1CCSS1` (stereo not drawn), the inhibition was < 30%.

As to `C[C@@H]1O[C@@H](O[C@H]2C[C@@H](O)[C@]3(CO)[C@H]4[C@H](O)C[C@]5(C)[C@@H](C6=CC(=O)OC6)CC[C@]5(O)[C@@H]4CC[C@]3(O)C2)[C@H](O)[C@H](O)[C@H]1O`, the inhibition is < 30%. Regarding `CC[C@H]1CN2CCc3cc(OC)c(OC)cc3[C@@H]2C[C@@H]1C[C@H]1NCCc2cc(OC)c(OC)cc21`, the inhibition is < 30%. For the molecule `O=c1ccc2cc(O[C@@H]3O[C@H](CO)[C@@H](O)[C@H](O)[C@H]3O)c(O)cc2o1`, the inhibition is < 30%. Same read-out and setting: for `CC(C)=CCC[C@@H](C)CC=O` the value was < 30%.

As for `O=C(O)/C=C/c1ccc(O)cc1`, the inhibition is < 30%. Still for that read-out and setting: in the case of `CC(C)=CCCC(C)CCO` (racemic) it was < 30%; in that of `CC(C)C1=CC2=CC[C@@H]3[C@](C)(CCC[C@@]3(C)C(=O)O)[C@H]2CC1`, < 30%; in that of `CC(C)=CCC[C@](C)(O)[C@H]1CC=C(C)CC1`, < 30%.

In the case of `O=c1cc(-c2ccc(O)c(O)c2)oc2cc(O)cc(O)c12` [LUTEOLIN], the inhibition is < 30%. Same read-out and setting: in the case of `C[N+]1(C)CCC[C@H]1C(=O)[O-]` it was < 30%; in that of `Cn1c(=O)c2[nH]cnc2n(C)c1=O`, < 30%; in that of `CC12CCC(CC1)C(C)(C)O2`, < 30%. As to `O=C1C[C@@H](c2ccc(O)cc2)Oc2cc(O)cc(O)c21`, the inhibition is < 30%. Still for that read-out and setting: in the case of `O=C/C=C/c1ccccc1` it was 45%. In the case of `O=c1ccc2ccccc2o1`, the inhibition is < 30%. Take `COc1cc([C@@H]2c3cc4c(cc3[C@H](O)[C@H]3COC(=O)[C@H]23)OCO4)cc(OC)c1OC`: the inhibition is < 30%.

The target in another data set is T2, Prostaglandin G/H synthase 2.
Details: not given
For `C[C@H]1[C@H](C)CC[C@]2(C(=O)O)CC[C@]3(C)C(=CC[C@@H]4[C@@]5(C)CC[C@H](O)C(C)(C)[C@@H]5CC[C@]43C)[C@H]12` [URSOLIC ACID], the IC50 is 86 µM. On the same count and under the same terms, in the case of `c1ccc(-c2ccc(-c3ccccc3)cc2)cc1` [TANNIN PYROGALLOL] it was 144 µM.

Substrate in a further data set: CCCCC/C=C\C/C=C\C/C=C\C/C=C\CCCC(=O)O
Description: Activity of COX2.
Details: not given
As to B1, the Km came out at 1 µM.

Another data set deals with T1, Prostaglandin G/H synthase 2 (Homo sapiens). Description: Inhibition of COX2 at 10 uM by scintillation proximity assay.
Details: not given
Background: Scintillation proximity formats need no separation of bound from free tracer.
Consider `O=C(O)/C=C/c1ccc(O)c(O)c1`, for which the result was inactive. On the same count and under the same terms, for `O=c1c(O)c(-c2cc(O)c(O)c(O)c2)oc2cc(O)cc(O)c12` the value was “inactive”.

For the molecule `Oc1cccc(O)c1O`, the result was inactive. As for `C=CCc1ccc(O)c(OC)c1`, the outcome was inactive. Same read-out and setting: in the case of `O=C/C=C/c1ccccc1` it was “inactive”.

Another data set addresses T2, Prostaglandin G/H synthase 2. As to the kind of experiment: Inhibition of COX2.
Details: not given
Regarding `O=c1cc(-c2ccc(O)c(O)c2)oc2cc(O)cc(O)c12` [LUTEOLIN], the IC50 was < 349 µM.

Another data set has the same target. Description: Inhibition of COX2 in LPS-stimulated bone marrow derived mast cells.
Details: not given
The molecule `O=c1cc(-c2ccc(O)c(O)c2)oc2cc(O)cc(O)c12` [LUTEOLIN] gave a half-maximal inhibitory concentration (IC50) of 8.73 µM.

The record behind these values is ChEMBL document CHEMBL1150665, “Screening of ubiquitous plant constituents for COX-2 inhibition with a scintillation proximity based assay” (J Nat Prod, 2002).
